Measured values reported in ChEMBL document CHEMBL1201862, “PubChem BioAssay data set” (2004).
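Step 1: Grow cells in 96-well plates. Step 2: Expose to compound for 48 hours at 5 concentrations. Step 3: Interpolate endpoints linearly; if unreached, use highest concentration. Here, GI50 denotes the concentration required for 50% inhibition of growth.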 Active and inactive are the calls of the source. Rule as the data show it: active = GI50 up to about 1.1 µM and inactive = higher.

Key:
Assay in all cases: NCI tumour cell line growth inhibition, 48 h
SNB-78 = test system: SNB-78
DMS-273 = test system: DMS-273
DMS-114 = test system: DMS-114
M19-MEL = test system: M19-MEL
RXF 631 = test system: RXF 631
LXFL 529 = test system: LXFL 529
KM-20L2 = test system: KM-20L2
XF498 = test system: XF498
HOP-18 = test system: HOP-18

Measured: GI50

COc1ccc(NC(=O)/C(=C/c2ccccc2)C(C)=O)cc1
inactive: SNB-78 15.5 µM | DMS-273 13.7 µM | DMS-114 15.2 µM | M19-MEL 14.3 µM | RXF 631 15.7 µM | LXFL 529 12.4 µM | KM-20L2 14.3 µM | XF498 16.2 µM | HOP-18 13.5 µM

CCOC(=O)Cn1c(=O)[nH]c(=O)c2c1ncn2Cc1ccccc1
inactive: SNB-78 > 100 µM | DMS-273 > 100 µM | DMS-114 > 100 µM | M19-MEL > 100 µM | RXF 631 > 100 µM | LXFL 529 > 100 µM | KM-20L2 > 100 µM | XF498 > 100 µM | HOP-18 > 100 µM

C/C=N\N1C(=O)c2ccccc2C1=O
inactive: SNB-78 > 100 µM | DMS-273 > 100 µM | DMS-114 > 100 µM | M19-MEL > 100 µM | RXF 631 > 100 µM | LXFL 529 > 100 µM | KM-20L2 > 100 µM | XF498 > 100 µM | HOP-18 > 100 µM

CNC(=O)OCc1nc([S+](C)[O-])n(C)c1COC(=O)NC (stereo not given)
inactive: SNB-78 > 60.5 µM | DMS-273 > 100 µM | DMS-114 > 34.6 µM | M19-MEL > 45.1 µM | RXF 631 > 100 µM | LXFL 529 > 23.1 µM | KM-20L2 > 100 µM | XF498 > 100 µM | HOP-18 > 88.9 µM

CCc1ccccc1NC(=O)c1cccc([N+](=O)[O-])c1O
inactive: SNB-78 37.8 µM | DMS-273 22.1 µM | DMS-114 17.2 µM | M19-MEL 23.6 µM | RXF 631 23.7 µM | LXFL 529 36.4 µM | KM-20L2 24.7 µM | XF498 20.4 µM | HOP-18 66.5 µM
